The record followed here is patent US11154527B2, “Dermatophytosis prophylaxis and treatment” (The Children's Mercy Hospital, priority 2015, dated 2021).

Structures can show the parent of a compound that is named as a salt. Where two headings read alike, the source gives them in different places.

The subject of experiment [1] is reference strain of T. tonsurans. The experiment can be described thus: Preliminary screening of 7,676 compounds (384 well format), growth read at 600 nm. It is filed as cell-based, Trichophyton tonsurans. Conditions: preliminary screen. As for the experimental part: (§1) Materials Used: • 10 mm×100 mm petri plate of dermatophyte culture grown to confluency (>14 days) on Sabouraud's dextrose agar (Becton Dickinson, Sparks Md.) containing 50 mg/L chloramphenicol and 500 mg/L cycloheximide (Sigma Chemical Company, St. Louis Mo.) (see appendix A for recipe). • 1× sterile Phosphate Buffered Saline (Sigma Chemical Company, St. Louis Mo.). • (2) 15 mL sterile disposable conical tubes (Thermo Fisher Scientific, Rochester N.Y.). • Disposable sterile inoculating loop (Fisher Scientific, Hanover Park Ill.). • Disposable sterile transfer pipette (Fisher Scientific, Hanover Park Ill.). • Sterilized 2″×2″ 4 ply gauze (Medline Industries, Mundelein Ill.) • 30 mL sterile disposable syringe (Becton Dickinson, Franklin Lakes N.J.). • Hemocytometer (Fisher Scientific, Hanover Park Ill.).
(§2) Spore Prep Procedure (performed aseptically in a biosafety cabinet): • The fungal plate was flooded with 10 mL of sterile 1×PBS and with a sterile disposable inoculating loop, then the surface was gently scraped until all the fungal material (hyphae and spores) was liberated into the PBS. • Using a disposable transfer pipette, the entire volume of PBS/spores was transferred from the plate into a sterile 15 mL conical tube. • Next, 2 mL of sterile 1×PBS was added to the plate and swirled to rinse. • Using the transfer pipette, the remaining volume of PBS/spores was transferred from the plate to the 15 mL conical. • Then, the 15 mL tube was capped and vortexed at max speed for 10-15 seconds, set aside. • The plunger from the 30 mL syringe was then removed and the barrel was packed with 1 square of sterile 2″×2″ gauze. • Using the plunger, the gauze was firmly packed at the bottom of the barrel then the plunger was removed. • The syringe barrel was placed into a new sterile 15 mL conical tube and the entire contents of the 15 mL PBS/spore suspension was poured directly onto the gauze in the syringe barrel. • The plunger was then gently inserted into the barrel and depressed all the way down to filter the spore/hyphal suspension through the gauze. • The plunger was gently removed and additional 2 mL of sterile PBS was added back to the original 15 mL conical tube.
Screening (384 well format):
Note: final concentration of DMSO was not to exceed 0.5%.
NOTE: there was residual spore suspension, the calculations above allowed for overage to ensure enough suspension is made for each plate. • Using the peristaltic pump, the automated dispenser was programmed to deliver 35 μL of 2×SabDEX broth to each well in the 384 well plate. The pump was then purged of growth media and re-primed with the spore suspension. The dispenser was then programmed to deliver 35 μL of spore suspension to each test well (to include+growth controls). • Negative growth controls were made by manually pipetting 35 μL of sterile 1×PBS from a sterile multi-channel boat into each (−) control well using a 100 μL pipette. • Each plate was given a numerical designation, dated, sealed with an EDGE® seal and placed in a 32° C. incubator for 48 hours. • After incubation, the seal was carefully removed and the plate read at 600 nm using a single point read on a microplate reader. • If more time was required, the plate was re-sealed and incubated an additional 24 hours.

The next experiment deals with T. equinum. The experiment can be described thus: MIC testing against different Trichophyton species: T. equinum. The class given is cell-based. As for the experimental part: (§3) Materials Used: • 10 mm×100 mm petri plate of dermatophyte culture grown to confluency (>14 days) on Sabouraud's dextrose agar (Becton Dickinson, Sparks Md.) containing 50 mg/L chloramphenicol and 500 mg/L cycloheximide (Sigma Chemical Company, St. Louis Mo.) (see appendix A for recipe). • 1× sterile Phosphate Buffered Saline (Sigma Chemical Company, St. Louis Mo.). • (2) 15 mL sterile disposable conical tubes (Thermo Fisher Scientific, Rochester N.Y.). • Disposable sterile inoculating loop (Fisher Scientific, Hanover Park Ill.). • Disposable sterile transfer pipette (Fisher Scientific, Hanover Park Ill.). • Sterilized 2″×2″ 4 ply gauze (Medline Industries, Mundelein Ill.) • 30 mL sterile disposable syringe (Becton Dickinson, Franklin Lakes N.J.). • Hemocytometer (Fisher Scientific, Hanover Park Ill.). […]

The next experiment concerns T. rubrum. The experiment is described as follows: MIC testing against different Trichophyton species: T. rubrum. The class given is cell-based. The procedure: as §3
Experiment [2] relates to reference strain of T. tonsurans. The experiment can be described thus: MIC / dose-response testing against reference strain of T. tonsurans. It is filed as cell-based, Trichophyton tonsurans. As for the experimental part:
as §1, §2
(§4) MIC Testing (96 well format):
(§5) To Make the Spore Suspension:
(§6) • A 2 mM stock of the compound to be tested was made in 100% DMSO in a sterile 1.5 mL microfuge tube. • Vortexed the tube vigorously for 1 minute, then protected the compound from light and rocked or shook for 1 hour at room temperature to fully dissolve. • NOTE: Because the 2× culture media was diluted with an equal volume of spore/PBS solution to achieve a 1× final media concentration, the high standard for the range of compound to be tested was made at 2× the highest concentration desired and contain a final DMSO concentration of 0.5%.
(§7) To generate the range of compound to be tested, the following dilution protocol was performed:
(§8) (a) The high standard was made:
(§9) The result was 1000 μL of a 20 μM stock in 2× Culture Medium with a final [DMSO] of 1%.
(§10) (b) The drug dilution range to be tested was made by serially diluting the high standard 1:1 with 2× Culture Medium/1% DMSO.
(§11) Aseptically added 100 μL of the drug/media manually to each well according to the plate map in FIG. 2, as follows: […]

For experiment [3], the system named is 5 genetically distinct strain of T. tonsurans. The experiment is described as follows: MIC testing against 5 genetically distinct strains of T. tonsurans. It is filed as cell-based. The settings on record: Trichophyton tonsurans. As for the experimental part:
as §1, §2, §4, §5, §6, §7, §8, §9, §10, §11

The next experiment concerns T. mentagrophytes. The experiment can be described thus: MIC testing against different Trichophyton species: T. mentagrophytes. The class given is cell-based. The procedure:
as §3

The mark [4] stands for this setting: Trichophyton tonsurans, dose response (DR plate), reference strain of T. tonsurans, read-out: rMIC50.
Setting [5] is: Trichophyton tonsurans, range, reference strain of T. tonsurans (Table 2), read-out: IC50 [range].
Where [6] appears, read: Trichophyton tonsurans, reference strain of T. tonsurans (Table 2), read-out: IC50.

On to `COCc1c(C(C)C)nc(C(C)C)c(/C=C/[C@@H](O)C[C@@H](O)CC(=O)O)c1-c1ccc(F)cc1` [Cerivastatin], for which the “Prelim H ratio” value in experiment [1] amounted to 1.06. Also, in experiment [1], the “Prelim L ratio” value is 2.28. The IC50 with T. equinum was 21 nM; in the experiment with T. rubrum it was 68 nM; in experiment [2] (setting [4]), below 10 nM; in experiment [2] (setting [5]), 3 to 58 nM; in experiment [2] (setting [6]), 10 nM; in experiment [3] (T. tonsurans strain 0924-0254) it was 3 nM. Besides, the IC50 in experiment [3] (T. tonsurans strain 0924-1093) amounted to 5 nM; in experiment [3] (T. tonsurans strain 0924-1456), 15 nM; in experiment [3] (T. tonsurans strain 0924-1669), 5 nM; in experiment [3] (T. tonsurans strain 1119-0616) it was 10 nM; in the experiment on T. mentagrophytes, 19 nM.

On to `Clc1ccc(C(Cn2ccnc2)OCc2ccsc2Cl)c(Cl)c1` (centres unmarked) [Tioconazole], for which, in experiment [1], the “Prelim H ratio” value turned out to be 1.03 and the “Prelim L ratio” value is listed as 2.02. Also, the IC50 in experiment [2] (setting [4]) is 18 nM.

For `Cc1cccc(N(C)C(=S)Oc2ccc3ccccc3c2)c1` [Tolnaftate], in experiment [1], the “Prelim H ratio” value worked out at 1.01 and the “Prelim L ratio” value is recorded as 1.99. Also, the IC50 in experiment [2] (setting [4]) came to 13 nM.

For `C[C@H]1CC[C@]2(NC1)O[C@H]1C[C@H]3[C@@H]4CC[C@H]5C[C@@H](O)CC[C@]5(C)[C@H]4CC[C@]3(C)[C@H]1[C@@H]2C` [Tomatidine HCl], in experiment [1], the “Prelim H ratio” value stood at 0.45 and the “Prelim L ratio” value is reported as 0.92. Besides, in experiment [2] (setting [4]), the IC50 worked out at 486 nM.

Take `CSc1nc2cc(Cl)c(Oc3cccc(Cl)c3Cl)cc2[nH]1` [Triclabendazole]: in experiment [1], the “Prelim H ratio” value was determined as 1.07 and the “Prelim L ratio” value was 2.14. In addition, the IC50 in experiment [2] (setting [4]) was determined as 212 nM.

Take `Oc1cc(Cl)ccc1Oc1ccc(Cl)cc1Cl` [Triclosan]: in experiment [1], the “Prelim H ratio” value is 1.04 and the “Prelim L ratio” value came out at 2.08. Also, the IC50 in experiment [2] (setting [4]) is 656 nM.

`C[C@@H](c1ncncc1F)[C@](O)(Cn1cncn1)c1ccc(F)cc1F` [Voriconazole]: in experiment [1], the “Prelim H ratio” value is listed as 1.00 and the “Prelim L ratio” value was found to be 1.85. Besides, the IC50 in experiment [2] (setting [4]) stood at 84 nM.

As for `CC[C@H](C)C(=O)O[C@H]1CCC=C2C=C[C@H](C)[C@H](CC[C@@H]3C[C@@H](O)CC(=O)O3)[C@H]21` [mevastatin], in experiment [1], the “Prelim H ratio” value was found to be 0.45 and the “Prelim L ratio” value was 0.86. The IC50 in experiment [2] (setting [4]) was determined as 650 nM. Moreover, the IC50 in experiment [2] (setting [6]) turned out to be 650 nM.

In the case of `O=C(O)C[C@H](O)C[C@H](O)/C=C/c1c(C2CC2)nc2ccccc2c1-c1ccc(F)cc1` [pitavastatin], the IC50 with T. equinum was 54 nM; in the experiment on T. rubrum, 147 nM; in experiment [2] (setting [5]) it was 3 to 32 nM; in experiment [2] (setting [6]), 30 nM; in experiment [3] (T. tonsurans strain 0924-0254), 3 nM; in experiment [3] (T. tonsurans strain 0924-1093) it was 18 nM. For the same molecule, the IC50 turned out to be 24 nM in experiment [3] (T. tonsurans strain 0924-1456), 25 nM in experiment [3] (T. tonsurans strain 0924-1669), 27 nM in experiment [3] (T. tonsurans strain 1119-0616) and 35 nM with T. mentagrophytes.

Consider `CCC(C)(C)C(=O)O[C@H]1C[C@@H](C)C=C2C=C[C@H](C)[C@H](CC[C@@H](O)C[C@@H](O)CC(=O)O)[C@H]21` [simvistatin acid], for which the IC50 in the experiment with T. equinum was 86 nM; with T. rubrum it was 303 nM; in experiment [2] (setting [5]), 24 to 62 nM; in experiment [2] (setting [6]), 30 nM; in experiment [3] (T. tonsurans strain 0924-0254), 29 nM; in experiment [3] (T. tonsurans strain 0924-1093), 50 nM. For the same molecule, the IC50 in experiment [3] (T. tonsurans strain 0924-1456) came to 52 nM; in experiment [3] (T. tonsurans strain 0924-1669), 52 nM; in experiment [3] (T. tonsurans strain 1119-0616) it was 62 nM; with T. mentagrophytes it was 71 nM.

As for Bleomycin, in experiment [1], the “Prelim H ratio” value stood at 0.40 and the “Prelim L ratio” value is recorded as 0.74. The molecule also returned an upper asymptote in experiment [2] (dose response (DR plate), reference strain of T. tonsurans) of 93.1. Besides, the IC50 in experiment [2] (dose response (DR plate), reference strain of T. tonsurans, read-out: rMIC50) was found to be 263 nM.
